From patent publication US9340500B2, “Aromatic heterocyclic derivative having TRPV4-inhibiting activity” (SHIONOGI & CO., LTD., priority 2011, dated 2016)

Molecular target: human TRPV4 (Homo sapiens (Human), UniProt Q9HBA0)
Assay: Test Example 1: measurement of TRPV4 inhibitory activity (Fluo 4-AM, FLIPR TETRA, 4α-PDD 1 μmol/L)
Format: cell-based
Details: hTRPV4/CHO cells; for IC50: 4α-PDD 1 μmol/L; for Ki: calculated from IC50 and 4α-PDD EC50
Protocol: For each compound, TRPV4 inhibitory activity was measured using cells.
(1) The TRPV4 inhibitory activity was measured using CHO-K1 cells stably expressing human TRPV4 (hTRPV4/CHO cells).
(2) In the day before the experimental day, frozen cell were thawed and washed with the culture medium (MEM-α, 10% FBS, 2 mmol/L GlutaMax, 50 unit Penicillin, 50 μg/mL Streptomycin). Then cells were suspended in the culture medium.
(3) The 384-well plates which hTRPV4/CHO cells were seeded at densities of 4000 cells/well in the culture medium and cultured in a CO2 incubator in the presence of 5% CO2 at 37° C. for overnight was used as assay plates.
(4) The assay plate was washed with assay buffer (Hanks, 20 mmol/L HEPES, 2.5 mmol/L probenecid, pH7.4), and the buffer were remained at 20 μL/well.
(5) 10 μl of dye loading buffer (9 μmol/L Fluo 4-AM, 0.09% Pluronic F-127/assay buffer) was added to each well, then the assay plate was incubated in a CO2 incubator in the presence of 5% CO2 at 37° C. for one hour. (final 3 μmol/L Fluo4-AM).
(6) The assay plate was washed with the assay buffer, and the buffers were remained at 20 μL/well. Then the assay plate was incubated for 10 min at room temperature.
(7) Diluted compound solution was dispensed to each well in the compound plate, and mixed with built-in Pipette and Mixer of the Fluorescence analysis system FLIPR TETRA (Molecular devices).
(8) After incubation for 5 min, 20 μL of 4α-PDD solution were applied to each well of assay plate and mixed with the FLIPR TETRA. (final 1 μmol/L 4α-PDD)
(9) The fluorescent intensity was measured with FLIPR TETRA system for 10 min from the point of time addition the compound solution, at Ex 470-495 nm, Em 515-575 nm wavelength.
TRPV4 inhibitory activity (IC50 value and Ki value) of a compound was evaluated according to the following procedure.
(10) In the presence of the compound, the difference between maximal and minimal of fluorescent intensity value for 5 min from just before addition of 4α-PDD solution was calculated, and it was referred as Max-Min value. Max-Min value of the Ruthenium Red at 20 μM was defined as 100% inhibitory activity, Max-Min value in the absence of the compound was defined as 0% inhibitory activity. The TRPV4 inhibitory activity of the compound was calculated by the following formula. (1−(Max-Min value of the compound−100% inhibitory activity)/(0% inhibitory activity−100% inhibitory activity))×100 (11) Inhibitory activity was calculated at 10 points with three fold serial dilution, in the final concentration of the compound from 10 μmmol/L to 0.5 nmol/L, the IC50 value was calculated by logistic approximation method. (12) In the absence of the compound, the fluorescent intensity was measured as the same method with 10, 1, 0.5, 0.2, and 0 μmol/L as final concentration of 4α-PDD. The difference of minimal and maximal fluorescent intensity value for 5 min from just before addition of 4α-PDD solution was calculated, and it was referred as Max-Min value. Max-Min value of the 4α-PDD at 10 μmol/L was defined as 100% activity, Max-Min value in the absence of 4α-PDD was defined as 0% activity. The TRPV4 activity of each concentration of 4α-PDD was calculated by the following formula. (Max-Min value of the each 4α-PDD concentration−0% activity)/(100% activity−0% activity))×100 (13) Effective activity was calculated in 5 concentrations of 4α-PDD the above. The EC50 value was calculated by logistic approximation method. The Ki value of a compound was calculated by the following formula. Ki (nmol/L)=IC50 value (nmol/L)/(1+[…] (test 4α-PDD concentration (nmol/L)/EC50 value (nmol/L))

Chain of human TRPV4 (Q9HBA0 whole entry): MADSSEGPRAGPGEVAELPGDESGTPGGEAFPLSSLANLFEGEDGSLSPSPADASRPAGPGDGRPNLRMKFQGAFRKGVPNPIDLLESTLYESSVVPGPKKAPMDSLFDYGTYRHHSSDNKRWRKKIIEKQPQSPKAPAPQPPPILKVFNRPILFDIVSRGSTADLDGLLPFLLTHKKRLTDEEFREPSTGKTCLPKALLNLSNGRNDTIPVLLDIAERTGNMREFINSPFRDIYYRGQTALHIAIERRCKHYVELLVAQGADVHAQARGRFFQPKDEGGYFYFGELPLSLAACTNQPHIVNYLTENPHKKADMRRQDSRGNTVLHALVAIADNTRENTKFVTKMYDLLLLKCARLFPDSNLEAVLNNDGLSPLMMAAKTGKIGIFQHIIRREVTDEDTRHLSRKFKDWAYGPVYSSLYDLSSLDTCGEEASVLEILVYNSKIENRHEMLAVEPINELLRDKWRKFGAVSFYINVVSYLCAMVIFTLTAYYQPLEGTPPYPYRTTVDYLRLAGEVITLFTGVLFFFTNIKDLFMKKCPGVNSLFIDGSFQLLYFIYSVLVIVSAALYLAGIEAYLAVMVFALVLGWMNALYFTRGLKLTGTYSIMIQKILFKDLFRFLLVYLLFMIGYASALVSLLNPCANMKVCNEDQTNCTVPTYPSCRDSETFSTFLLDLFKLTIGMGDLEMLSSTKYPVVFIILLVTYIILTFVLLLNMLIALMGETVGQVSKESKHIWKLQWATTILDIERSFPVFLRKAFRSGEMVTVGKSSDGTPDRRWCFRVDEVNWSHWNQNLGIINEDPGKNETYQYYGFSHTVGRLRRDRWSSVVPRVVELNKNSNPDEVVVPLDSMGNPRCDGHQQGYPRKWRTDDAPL

IC50 | Ki | SMILES
0.045 µM | 21 nM | Cc1c(C(=O)Nc2cccc(C(F)(F)F)c2)cc(C2CCCCC2)n1CCCN1CCOCC1 [Compound I-072]
0.27 µM | 130 nM | Cc1c(C(=O)Nc2cccc(C(F)(F)F)c2)cc(C2CCN(C(=O)OCc3ccccc3)CC2)n1CCCN1CCOCC1 [Compound I-075]
1.1 µM | 380 nM | CCOC(=O)CCn1c(C(C)(C)C)cc(C(=O)Nc2cccc(C(F)(F)F)c2)c1C [Compound I-090]
1.5 µM | 560 nM | Cc1c(C(=O)Nc2cccc(C(F)(F)F)c2)cc(C(C)(C)C)n1CCC(=O)N1CCOCC1 [Compound I-091]
6.4 µM | 2400 nM | CNC(=O)CCn1c(C(C)(C)C)cc(C(=O)Nc2cccc(C(F)(F)F)c2)c1C [Compound I-092]
1.4 µM | 530 nM | Cc1c(C(=O)Nc2cccc(C(F)(F)F)c2)cc(C(C)(C)C)n1CCC(=O)N1CCNCC1 [Compound I-093]
6.1 µM | 2200 nM | CNS(=O)(=O)CCn1c(C(C)(C)C)cc(C(=O)Nc2cccc(C(F)(F)F)c2)c1C [Compound I-094]
0.97 µM | 380 nM | Cc1c(C(=O)Nc2cccc(C(F)(F)F)c2)cc(C(C)(C)C)n1CCS(=O)(=O)N1CCOCC1 [Compound I-095]
0.42 µM | 130 nM | CNC(C)CCn1c(C(C)(C)C)cc(C(=O)Nc2cccc(C(F)(F)F)c2)c1C (centres unmarked) [Compound I-096]
0.43 µM | 130 nM | Cc1c(C(=O)Nc2cccc(C(F)(F)F)c2)cc(C(C)(C)C)n1CCC(C)N1CCOCC1 (centres unmarked) [Compound I-097]
1.9 µM | 590 nM | Cc1c(C(=O)Nc2cccc(C(F)(F)F)c2)cc(C(C)(C)C)n1CCS(=O)(=O)N1CCNCC1 [Compound I-098]
5.9 µM | 2100 nM | Cc1c(C(=O)Nc2cccc(C(F)(F)F)c2)cc(C(C)(C)C)n1C1CCNCC1 [Compound I-099]
0.83 µM | 290 nM | CNCC(C)(C)Cn1c(C(C)(C)C)cc(C(=O)Nc2cccc(C(F)(F)F)c2)c1C [Compound I-100]
7.4 µM | 2600 nM | CC(=O)N1CCC(n2c(C(C)(C)C)cc(C(=O)Nc3cccc(C(F)(F)F)c3)c2C)CC1 [Compound I-101]
4.2 µM | 1500 nM | Cc1c(C(=O)Nc2cccc(C(F)(F)F)c2)cc(C(C)(C)C)n1C1CCN(S(C)(=O)=O)CC1 [Compound I-102]
7.7 µM | 2700 nM | Cc1c(S(=O)(=O)NCc2cccc(C(F)(F)F)c2)cc(C(C)(C)C)n1CCCN1CCOCC1 [Compound I-104]
3.9 µM | 1200 nM | Cc1c(C(=O)Nc2cccc(C(F)(F)F)c2)cc(C(C)(C)C)n1C1CCN(C)CC1 [Compound I-106]
6.6 µM | 2100 nM | COC(=O)CN1CCC(n2c(C(C)(C)C)cc(C(=O)Nc3cccc(C(F)(F)F)c3)c2C)CC1 [Compound I-107]
0.54 µM | 170 nM | Cc1c(C(=O)Nc2cccc(C(F)(F)F)c2)cc(C(C)(C)C)n1CC(C)(C)CN1CCOCC1 [Compound I-108]
6.3 µM | 2300 nM | Cc1c(C(=O)Nc2cccc(C(F)(F)F)c2)cc(C(C)(C)C)n1C1CCN(C2CCNCC2)CC1 [Compound I-109]
6.6 µM | 2400 nM | Cc1c(C(=O)Nc2cccc(C(F)(F)F)c2)cc(C(C)(C)C)n1C1CCN(CCO)CC1 [Compound I-110]
4.1 µM | 1500 nM | Cc1c(C(=O)Nc2cccc(C(F)(F)F)c2)cc(C(C)(C)C)n1[C@H]1CC[C@H](N)CC1 [Compound I-111]
5.6 µM | 1500 nM | CN[C@H]1CC[C@H](n2c(C(C)(C)C)cc(C(=O)Nc3cccc(C(F)(F)F)c3)c2C)CC1 [Compound I-112]
5.8 µM | 1500 nM | Cc1c(C(=O)Nc2cccc(C(F)(F)F)c2)cc(C(C)(C)C)n1[C@H]1CC[C@H](N(C)C)CC1 [Compound I-113]
8.7 µM | 2300 nM | Cc1c(C(=O)Nc2cccc(C(F)(F)F)c2)cc(C(C)(C)C)n1[C@H]1CC[C@H](NS(C)(=O)=O)CC1 [Compound I-114]
